Here are results for 1 compound from US20070110802A1, “Wet granulation process” (priority 2005, published 2007).

In general, pKa refers to the pH at which an ionisable group is half protonated. The term solubility denotes the concentration that dissolves in the medium under given conditions. A higher solubility goes with a readily soluble substance.

The nature of data set [1]: physchem.
Procedure: The pKa of a compound is determined experimentally or it can be calculated, such as with ACDLABS8.0 software.
A short description of data set [2]: pH dependent aqueous solubility of Compound A. It is filed as physicochemical. How it is done: The material was analyzed for hydrate formation.

For `Cc1c(Cl)cccc1S(=O)(=O)Nc1nc(CCN2CCOCC2=O)cs1` [Compound A, 3-chloro-2-methyl-N-(4-(2-(3-oxo-4-morpholinyl)ethyl)-1,3-thiazol-2-yl)benzenesulfonamide], the pKa in data set [1] was roughly 6.6. Also, in data set [2] (solubility versus pH), the “pH dependent solubility (FIG. 9)” value was “solubility increases at a pH consistent with the approximate pKa value”. Moreover, the solubility in data set [2] (water, pH 4, aqueous buffer) is less than 15 µg/mL.
